According to PubChem BioAssay (NCI):
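In this assay, cells in 96-well plates receive the compound at five concentrations for 48 hours. Endpoints are linearly interpolated between the surrounding concentrations. At the TGI there is no net growth.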

Legend:
Assay in all cases: NCI-60 cell line screen, 48 h
786-0 renal = system: 786-0 renal
RXF 393 renal = system: RXF 393 renal
OVCAR-4 ovarian = system: OVCAR-4 ovarian
MDA-N = system: MDA-N
SN12C renal = system: SN12C renal
MDA-MB-435 = system: MDA-MB-435
HOP-62 NSCLC = system: HOP-62 NSCLC
MCF7 breast = system: MCF7 breast
ACHN renal = system: ACHN renal
MALME-3M melanoma = system: MALME-3M melanoma
MDA-MB-231 breast = system: MDA-MB-231 breast
NCI-H522 lung = system: NCI-H522 lung
SF-268 CNS = system: SF-268 CNS
SK-MEL-2 melanoma = system: SK-MEL-2 melanoma

SMILES	TGI (786-0 renal)	TGI (RXF 393 renal)	TGI (OVCAR-4 ovarian)	TGI (MDA-N)	TGI (SN12C renal)	TGI (MDA-MB-435)	TGI (HOP-62 NSCLC)	TGI (MCF7 breast)	TGI (ACHN renal)	TGI (MALME-3M melanoma)	TGI (MDA-MB-231 breast)	TGI (NCI-H522 lung)	TGI (SF-268 CNS)	TGI (SK-MEL-2 melanoma)
COc1cc2ccc1OCc1cccc(n1)COc1ccc(cc1OC)C=NCCNCCN=C2	> 100 µM	> 100 µM	> 100 µM	> 100 µM	> 100 µM	> 100 µM	> 100 µM	> 100 µM	> 100 µM	> 100 µM	> 100 µM	> 100 µM	> 100 µM	> 100 µM
C/C(Cc1ccc2c(c1)OCO2)=N\NC(=O)C(C)Sc1nnc(SC(C)C(=O)N/N=C(\C)Cc2ccc3c(c2)OCO3)s1 (centres undefined)	> 100 µM	> 100 µM	> 100 µM	> 100 µM		> 100 µM	> 100 µM	> 100 µM	> 100 µM	> 100 µM	> 100 µM		> 100 µM	> 100 µM
CCOC(=O)C(Cc1ccc(N(CCCl)CCCl)cc1)NC(=O)CCCN1C(=O)CN=C(c2ccccc2)c2cc(Cl)ccc21 (centres undefined)	> 77.5 µM	8.77 µM	98.3 µM	19.1 µM	14.5 µM	> 59.5 µM	> 100 µM	> 100 µM	22.5 µM	7.71 µM	78.6 µM	13.2 µM	71.5 µM	29.9 µM
[N-]=[N+]=CC(=O)CCC(=O)N(c1ccccc1)c1ccccc1	> 10 µM	> 10 µM		> 10 µM	> 10 µM	> 10 µM	> 10 µM	> 10 µM	> 10 µM	> 10 µM	> 10 µM		> 10 µM	> 10 µM
CCCNC(=O)N(C)C(=O)N1N=C(c2ccccc2)C1c1ccccc1 (centres undefined)	> 100 µM	> 100 µM	> 100 µM	> 100 µM	> 100 µM	> 100 µM	> 100 µM	> 100 µM	> 100 µM	> 100 µM	> 100 µM	> 100 µM		> 100 µM
Cc1ccc(N=C2C(c3ccccc3)=C(SC3=C(c4ccccc4)C(=Nc4ccc(C)cc4)c4ccccc43)c3ccccc32)cc1	22.4 µM	27.9 µM	17.2 µM	> 100 µM	77.1 µM	> 100 µM	22.9 µM	> 100 µM	18.3 µM		38.7 µM	> 100 µM	18.8 µM	> 78.7 µM
COC1CC(O[C@H]2CC[C@@]3(C)[C@@H](CC[C@]4(O)[C@@H]3CC[C@]3(C)[C@@H](C(C)=O)[C@H](OC(=O)CC(C)C)[C@@H](OC(=O)c5ccccc5)[C@@]34O)C2)OC(C)C1OC1CC(OC)C(OC2OC(C)C(O)C(OC)C2O)C(C)O1 (some centres undefined)	> 25 µM	> 25 µM	> 25 µM	> 25 µM	> 25 µM	> 25 µM	> 25 µM	> 25 µM	> 25 µM	> 25 µM	> 25 µM	> 25 µM	> 25 µM	> 25 µM
CC1CN=C(Nc2ccc(F)c(Cl)c2)S1 (centres undefined)	> 100 µM	> 100 µM		> 100 µM		> 100 µM	> 100 µM	> 100 µM	> 100 µM	> 100 µM	> 100 µM	> 100 µM	> 100 µM	> 100 µM
CC(C)[C@@H](C)[C@@]1(C)C[C@@H]1[C@@H](C)[C@H]1CC[C@@H]([C@@H]2CC=C3C[C@@H](O)CC[C@]3(C)C2=O)[C@]1(C)CCO	17.2 µM	11.5 µM	24.8 µM	26.1 µM	25.5 µM	24.3 µM	31.2 µM	22.8 µM	25 µM	27.4 µM	28 µM	19.8 µM	30.3 µM	33.3 µM
Cc1nnc(Sc2nc(C#N)c(C#N)nc2Sc2nnc(C)s2)s1	28.6 µM	6 µM	> 80.1 µM	49.7 µM	26.4 µM	> 84.7 µM	> 74.3 µM	25.3 µM	8.08 µM	4.48 µM	37.9 µM		73.2 µM	44.7 µM
C#CC1NC(=O)C1N(CC)CC (centres undefined)	> 100 µM	> 100 µM	> 100 µM	> 100 µM	> 100 µM	> 100 µM	> 100 µM	> 100 µM	> 100 µM	> 100 µM	> 100 µM	> 100 µM	> 100 µM	> 100 µM
CCCCCCCCC/C=C1/CC(CO)(COC(=O)c2ccccc2)OC1=O (centres undefined)	29.4 µM	31 µM	26.5 µM	20.6 µM	26.4 µM	23.3 µM	19 µM	30.5 µM	24.9 µM	20.8 µM	26.3 µM	26.6 µM	29.8 µM	32.4 µM
Cn1c(N=P(c2ccccc2)(c2ccccc2)c2ccccc2)c([N+](=O)[O-])c(=O)n(C)c1=O	> 100 µM	> 100 µM	> 100 µM	> 100 µM	> 100 µM	> 100 µM	> 100 µM	> 100 µM	> 100 µM	> 100 µM	> 100 µM	> 100 µM	> 100 µM	> 100 µM
COc1ccc(/C(=N\Nc2ccccn2)c2ccccn2)cc1	24.5 µM	36.6 µM	42.9 µM	> 100 µM	> 100 µM	22.3 µM	10.4 µM	49.7 µM	2.81 µM		> 74.9 µM	14.8 µM	13.1 µM	30.2 µM
Cc1cccc2c1c(=O)c1c(O)cc(O)cc1n2C	> 100 µM	> 100 µM	> 100 µM	> 100 µM	> 100 µM	> 100 µM	> 100 µM	> 100 µM	> 100 µM	> 100 µM	> 100 µM	> 100 µM	> 100 µM	> 100 µM
CCCNC(=O)N1CC(CN2CCN(c3ccccc3)CC2)O/C1=N/C(=O)Nc1ccccc1 (centres undefined)	> 100 µM	> 100 µM	> 100 µM	> 100 µM	> 100 µM	> 100 µM	> 100 µM	> 100 µM	> 100 µM	> 100 µM	> 100 µM	> 100 µM	> 100 µM	> 100 µM
